The subject of one experiment is Caco-2 cells. Put plainly: Proliferation assay, Caco-2. Type of experiment: cell-based. The settings on record: Homo sapiens, Caco-2, 96 h; 4 days, crystal violet; read-out: Inhibition of Caco-2 cell proliferation IC50. The procedure: (§1) Cultivated tumour cells (HeLa, human cervical tumour cells, ATCC CCL-2; NCI-H460, human non-small cell lung carcinoma cells, ATCC HTB-177; DU 145, hormone-independent human prostate carcinoma cells, ATCC HTB-81; HeLa-MaTu-ADR, multidrug-resistant human cervical carcinoma cells, EPO-GmbH Berlin; Caco-2, human colorectal carcinoma cells, ATCC HTB-37; B16F10, mouse melanoma cells, ATCC CRL-6475) were plated at a density of 5,000 cells/well (DU145, HeLa-MaTu-ADR), 3,000 cells/well (NCI-H460, HeLa), 1,500 cells/well (Caco-2), or 1,000 cells/well (B16F10) in a 96-well multititer plate in 200 μL of their respective growth medium supplemented 10% fetal calf serum. After 24 hours, the cells of one plate (zero-point plate) were stained with crystal violet (see below), while the medium of the other plates was supplemented with the test substances in various concentrations (0 μM, as well as in the range of 0.0001-10 μM; the final concentration of the solvent dimethyl sulfoxide was adjusted to 0.1%) using a Hewlett-Packard HP D300 Digital Dispenser. The cells were incubated for 4 days in the presence of test substances. Cell proliferation was determined by staining the cells with crystal violet: the cells were fixed by adding 20 μl/measuring point of an 11% glutaric aldehyde solution for 15 minutes at room temperature. After three washing cycles of the fixed cells with water, the plates were dried at room temperature. The cells were stained by adding 100 μl/measuring point of a 0.1% crystal violet solution (pH 3.0). After three washing cycles of the stained cells with water, the plates were dried at room temperature. The dye was dissolved by adding 100 μl/measuring point of a 10% acetic acid solution. The extinction was determined by photometry at a wavelength of 595 nm. The change of cell number, in percent, was calculated by normalization of the measured values to the extinction values of the zero-point plate (=0%) and the extinction of the untreated ([…]) cells (=100%). The IC50 values (inhibitory concentration at 50% of maximal effect) were determined by means of a 4 parameter fit. A2780 human ovarian carcinoma cells (ECACC #93112519) and non-adherent MOLM-13 human acute myeloid leukemia cells (DSMZ ACC 554) were seeded at a density of 3,000 cell/well (A2780) or 5,000 cells/well (MOLM-13) in a 96-well multititer plate in 150 μL of growth medium supplemented 10% fetal calf serum. After 24 hours, cell viability of one plate (zero-point plate) was determined with the Cell Titre-Glo Luminescent Cell Viability Assay (Promega), while the medium of the other plates was supplemented with the test substances in various concentrations (0 μM, as well as in the range of 0.0001-10 μM; the final concentration of the solvent dimethyl sulfoxide was adjusted to 0.1%) using a Hewlett-Packard HP D300 Digital Dispenser. Cell viability was assessed after 72-hour exposure with the Cell Titre-Glo Luminescent Cell Viability Assay (Promega). IC50 values (inhibitory concentration at 50% of maximal effect) were determined by means of a 4 parameter fit on measurement data which were normalized to vehicle (DMSO) treated cells (=100%) and measurement readings taken immediately before compound exposure (=0%).

The subject of another experiment is MOLM-13 cells. Description: Proliferation assay, MOLM-13. The class given is cell-based. Particulars: Homo sapiens, 72-hour exposure, Cell Titre-Glo, read-out: Inhibition of MOLM-13 cell proliferation IC50. The procedure:
as §1

The structures appear in SMILES notation.

Turning to `CC(C)(C)OC(=O)N=S(C)(=O)Cc1cc2cc(c1)OCCCCOc1cc(ccc1F)-c1nc(ncc1F)N2` (racemic) [Example 3, (rac)-tert-butyl [{[3,20-difluoro-13,18-dioxa-5,7,25-triazatetracyclo[17.3.1.1^2,6.1^8,12]pentacosa-1(23),2(25),3,5,8(24),9,11,19,21-nonaen-10-yl]methyl}(methyl)oxido-λ^6-sulfanylidene]carbamate], the IC50 turned out to be 163 nM in the experiment on Caco-2 cells and 108 nM with MOLM-13 cells.

With `CS(=N)(=O)Cc1cc2nc(c1)OCCCCOc1cc(ccc1F)-c1cc(ncc1F)N2` (racemic) [Example 2, (rac)-3,20-difluoro-10-[(S-methylsulfonimidoyl)methyl]-13,18-dioxa-5,7,24-triazatetracyclo[17.3.1.1^2,6.1^8,12]pentacosa-1(23),2(25),3,5,8(24),9,11,19,21-nonaene], the IC50 with Caco-2 cells is 96 nM; with MOLM-13 cells, 27 nM.

`CS(=N)(=O)Cc1cc2cc(c1)OCCCOc1cc(ccc1F)-c1nc(ncc1F)N2` (racemic) [Example 10, (rac)-3,19-difluoro-10-[(S-methylsulfonimidoyl)methyl]-13,17-dioxa-5,7,24-triazatetracyclo[16.3.1.1^2,6.1^8,12]tetracosa-1(22),2(24),3,5,8(23),9,11,18,20-nonaene]: the IC50 was found to be 159 nM in the experiment on Caco-2 cells and 33 nM in the experiment on MOLM-13 cells.

Consider `CS(=N)(=O)Cc1cc2cc(c1)OCCCCOc1c(F)ccc(c1F)-c1nc(ncc1F)N2` (racemic) [Example 8, (rac)-3,20,23-trifluoro-10-[(S-methylsulfonimidoyl)methyl]-13,18-dioxa-5,7,25-triazatetracyclo[17.3.1.1^2,6.1^8,12]pentacosa-1(23),2(25),3,5,8(24),9,11,19,21-nonaene], for which the IC50 was 181 nM in the experiment with Caco-2 cells and 45 nM in the experiment on MOLM-13 cells.

On to `CS(=N)(=O)Cc1cc2cc(c1)OCCCCOc1cc(ccc1F)-c1nc(ncc1F)N2` (racemic) [Example 4, (rac)-3,20-difluoro-10-[(S-methylsulfonimidoyl)methyl]-13,18-dioxa-5,7,25-triazatetracyclo[17.3.1.1^2,6.1^8,12]pentacosa-1(23),2(25),3,5,8(24),9,11,19,21-nonaene], for which the IC50 in the experiment with Caco-2 cells amounted to 177 nM; in the experiment on MOLM-13 cells, 20 nM.

On to `CC(C)(C)OC(=O)N=S(C)(=O)Cc1cc2cc(c1)OCCCCCOc1cc(ccc1F)-c1nc(ncc1F)N2` (racemic) [Example 5, (rac)-tert-butyl [{[3,21-difluoro-13,19-dioxa-5,7,26-triazatetracyclo[18.3.1.1^2,6.1^8,12]hexacosa-1(24),2(26),3,5,8(25),9,11,20,22-nonaen-10-yl]methyl}(methyl)oxido-λ^6-sulfanylidene]carbamate], for which the IC50 in the experiment on Caco-2 cells was found to be 658 nM; with MOLM-13 cells it was 228 nM.

Consider `CS(=N)(=O)Cc1cc2cc(c1)OCCCCCOc1cc(ccc1F)-c1nc(ncc1F)N2` (racemic) [Example 6, (rac)-3,21-difluoro-10-[(S-methylsulfonimidoyl)methyl]-13,19-dioxa-5,7,26-triazatetracyclo[18.3.1.1^2,6.1^8,12]hexacosa-1(24),2(26),3,5,8(25),9,11,20,22-nonaene], for which the IC50 with Caco-2 cells came out at 144 nM; in the experiment with MOLM-13 cells, 140 nM.

The values are drawn from patent US11254690B2, “PTEFb inhibiting macrocyclic compounds” (BAYER AKTIENGESELLSCHAFT, priority 2017, dated 2022).
